Test results from PubChem BioAssay AID248 (DTP/NCI, 2004).
Values joined by “and” are separate entries in the source; they are usually repeats but may differ in a detail not shown here. Equal values may be shown once. Inconclusive results and toxic doses are left out. Rule as the data show it: active = T/C of 150% or more; inactive = T/C below 125%.

Test system: L1210 leukemia ip in BDF1 mice, survival T/C
Experiment: NCI In Vivo Anticancer Drug Screen. Data for tumor model L1210 Leukemia (intraperitoneal) in B6D2F1 (BDF1) mice
Conditions: endpoint: mean survival time, higher = longer survival
Procedure, shortened: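 Survival endpoint. Drug-treated group vs vehicle group, expressed as T divided by C. Tumor passaged by transplantation.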

[1] = dose: 100.0 mg/kg/injection, schedule: Q01DX001 (ip), vehicle: carboxymethylcellulose (CMC)
[2] = dose: 200.0 mg/kg/injection, schedule: Q01DX001 (ip), vehicle: carboxymethylcellulose (CMC)
[3] = dose: 400.0 mg/kg/injection, schedule: Q01DX001 (ip), vehicle: carboxymethylcellulose (CMC)
[4] = dose: 50.0 mg/kg/injection, schedule: Q01DX001 (ip), vehicle: carboxymethylcellulose (CMC)
[5] = dose: 100.0 mg/kg/injection, schedule: Q04DX003 (ip), vehicle: Klucel (hydroxypropylcellulose) (HPC)
[6] = dose: 200.0 mg/kg/injection, schedule: Q04DX003 (ip), vehicle: Klucel (hydroxypropylcellulose) (HPC)
[7] = dose: 400.0 mg/kg/injection, schedule: Q04DX003 (ip), vehicle: Klucel (hydroxypropylcellulose) (HPC)
[8] = dose: 100.0 mg/kg/injection, schedule: Q04DX003 (ip), vehicle: saline with Tween-80
[9] = dose: 200.0 mg/kg/injection, schedule: Q04DX003 (ip), vehicle: saline with Tween-80
[10] = dose: 400.0 mg/kg/injection, schedule: Q04DX003 (ip), vehicle: saline with Tween-80
[11] = dose: 50.0 mg/kg/injection, schedule: Q04DX003 (ip), vehicle: saline
[12] = dose: 100.0 mg/kg/injection, schedule: Q01DX001 (ip), vehicle: saline
[13] = dose: 100.0 mg/kg/injection, schedule: Q04DX003 (ip), vehicle: saline
[14] = dose: 200.0 mg/kg/injection, schedule: Q04DX003 (ip), vehicle: saline
[15] = dose: 100.0 mg/kg/injection, schedule: Q01DX001 (ip), vehicle: saline with Tween-80
[16] = dose: 200.0 mg/kg/injection, schedule: Q01DX001 (ip), vehicle: saline with Tween-80
[17] = dose: 400.0 mg/kg/injection, schedule: Q01DX001 (ip), vehicle: saline with Tween-80

Measured: T/C

c1ccc(N2CNN(c3ccccc3)CN2)cc1
inactive: [1] 86 % of control | [2] 90 % of control | [3] 95 % of control

O=N[C@H]1C2CC([C@@H]1Cl)[C@@H]1CC=C[C@H]21 (stereo partly drawn)
inactive: [4] 95 % of control | [1] 101 % of control | [2] 95 % of control

CCOC(=O)c1ccc(NC(=O)Oc2ccc(C=O)cc2OC)cc1
inactive: dose: 100.0 mg/kg/injection, schedule: Q01DX009 (ip), vehicle: Klucel (hydroxypropylcellulose) (HPC) 93 % of control | dose: 200.0 mg/kg/injection, schedule: Q01DX009 (ip), vehicle: Klucel (hydroxypropylcellulose) (HPC) 101 % of control | dose: 400.0 mg/kg/injection, schedule: Q01DX009 (ip), vehicle: Klucel (hydroxypropylcellulose) (HPC) 95 % of control

NC(=S)NN=C1CSSC1
inactive: dose: 1.56 mg/kg/injection, schedule: Q01DX009 (ip), vehicle: water 99 % of control | dose: 3.12 mg/kg/injection, schedule: Q01DX009 (ip), vehicle: water 96 % of control | dose: 6.25 mg/kg/injection, schedule: Q01DX009 (ip), vehicle: water 99 % of control | dose: 12.5 mg/kg/injection, schedule: Q01DX009 (ip), vehicle: water 103 % of control | dose: 12.5 mg/kg/injection, schedule: Q04DX003 (ip), vehicle: water 95 % of control | dose: 25.0 mg/kg/injection, schedule: Q01DX009 (ip), vehicle: water 103 % of control

COC(=O)c1ccccn1
inactive: dose: 100.0 mg/kg/injection, schedule: Q04DX002 (ip), vehicle: saline with Tween-80 100 % of control | dose: 200.0 mg/kg/injection, schedule: Q04DX002 (ip), vehicle: saline with Tween-80 107 % of control

N#CCCCCCCn1cnc2c(=S)nc[nH]c21
inactive: [5] 104 % of control | [6] 107 % of control | [7] 107 % of control

O=C(NCC(F)(F)C(F)(F)C(F)(F)C(F)(F)C(F)(F)C(F)(F)C(F)(F)F)Oc1ccccc1
inactive: dose: 75.0 mg/kg/injection, schedule: Q01DX001 (ip), vehicle: other 104 % of control | dose: 150.0 mg/kg/injection, schedule: Q01DX001 (ip), vehicle: other 96 % of control | dose: 300.0 mg/kg/injection, schedule: Q01DX001 (ip), vehicle: other 94 % of control

CC1=C2CC(C(C)(C)O)CCC2(C)CC/C1=N\NC(N)=S (stereo not drawn)
inactive: dose: 100.0 mg/kg/injection, schedule: Q01DX009 (ip), vehicle: saline with Tween-80 98 % of control | dose: 400.0 mg/kg/injection, schedule: Q01DX009 (ip), vehicle: saline with Tween-80 86 % of control

CCOC(=O)c1ccc(N(C=O)CCC(=O)CCl)cc1
inactive: dose: 3.0 mg/kg/injection, schedule: Q01DX009 (ip), vehicle: saline 104 % of control | dose: 5.0 mg/kg/injection, schedule: Q01DX001 (ip), vehicle: saline 95 % of control | dose: 6.0 mg/kg/injection, schedule: Q01DX009 (ip), vehicle: saline 100 % of control | dose: 10.0 mg/kg/injection, schedule: Q01DX001 (ip), vehicle: saline 102 % of control | dose: 12.0 mg/kg/injection, schedule: Q01DX009 (ip), vehicle: saline 94 % of control | dose: 12.5 mg/kg/injection, schedule: Q01DX009 (ip), vehicle: carboxymethylcellulose (CMC) 107 % of control | dose: 20.0 mg/kg/injection, schedule: Q01DX001 (ip), vehicle: saline 104 % of control | dose: 25.0 mg/kg/injection, schedule: Q01DX009 (ip), vehicle: carboxymethylcellulose (CMC) 107 % of control | dose: 40.0 mg/kg/injection, schedule: Q01DX001 (ip), vehicle: saline 106 % of control

CCCOC(=O)c1cncc(C(=O)OCCC)c1
inactive: [8] 94 % of control | [9] 105 % of control | [10] 100 % of control

c1cc[c]([Ge]([c]2ccccc2)[c]2ccccc2)cc1.c1ccc([Si](c2ccccc2)c2ccccc2)cc1
inactive: dose: 25.6 mg/kg/injection, schedule: Q04DX002 (ip), vehicle: saline with Tween-80 86 % of control | dose: 64.0 mg/kg/injection, schedule: Q04DX002 (ip), vehicle: saline with Tween-80 110 % of control | dose: 160.0 mg/kg/injection, schedule: Q04DX002 (ip), vehicle: saline with Tween-80 100 % of control | dose: 400.0 mg/kg/injection, schedule: Q04DX002 (ip), vehicle: saline with Tween-80 100 % of control

CCOC(=O)Nc1ccc2c(c1)/C(=N\NC(N)=S)c1ccccc1-2
inactive: [4] 94 % of control | [11] 86 % of control | dose: 75.0 mg/kg/injection, schedule: Q01DX009 (ip), vehicle: saline with Tween-80 101 % of control | [1] 102 % of control | [12] 93 % of control | [13] 92 % of control | dose: 150.0 mg/kg/injection, schedule: Q01DX009 (ip), vehicle: saline with Tween-80 113 % of control | [2] 105 % of control | dose: 200.0 mg/kg/injection, schedule: Q01DX001 (ip), vehicle: saline 96 % of control | [14] 100 % of control | [3] 100 % of control

COc1cc2ccc3c(c2cc1OC)CCc1cnoc1-3
inactive: [8] 95 % of control | [9] 98 % of control | [10] 98 % of control

c1ccc2c3c(ccc2c1)OCCCCCOc1ccc2ccccc2c1-c1c(ccc2ccccc12)OCCOCCOc1ccc2ccccc2c1-3
inactive: [15] 92 % of control | [16] 92 % of control | [17] 98 % of control

CCOC(=O)c1cnc(C)nc1Nc1ccccc1Cl
inactive: [11] 105 % of control | [13] 104 % of control | [14] 98 % of control and 108 % of control

CCOP(=S)(N/N=C1\CC2CCC1C2)OCC (stereo not drawn)
inactive: dose: 100.0 mg/kg/injection, schedule: Q01DX001 (ip), vehicle: other 94 % of control

CCCn1c(=O)cc(/C=N/Nc2ccc([N+](=O)[O-])cc2[N+](=O)[O-])c2ccccc21
inactive: [15] 90 % of control | [16] 90 % of control | [17] 90 % of control

Cc1noc(/N=C(/C(=N/c2onc(C)c2C)c2ccccc2)c2ccccc2)c1C
inactive: [5] 97 % of control | [6] 103 % of control | [7] 97 % of control

CN(C)CCN1c2ccccc2Sc2ccccc21
inactive: dose: 12.5 mg/kg/injection, schedule: Q04DX003 (ip), vehicle: saline 97 % of control | dose: 25.0 mg/kg/injection, schedule: Q04DX003 (ip), vehicle: saline 108 % of control | [11] 103 % of control | [13] 101 % of control

CSc1nn(C)c[n+]1-c1ccccc1
inactive: [12] 105 % of control
